Measurements reported in ChEMBL document CHEMBL1127121, “Benzofuran based angiotensin II antagonists related to GR117289: Part III; GR138950, a triflamide with high oral bioavailability” (Bioorg Med Chem Lett, 1993).

Tests used:
[1] = target: T1, Type-1 angiotensin II receptor (Oryctolagus cuniculus) (UniProt P34976); experiment: Affinity for Angiotensin II receptor, type 1 by measuring its ability to antagonise the contractile effect of AngII in rabbit isolated thoracic aorta; type: functional, tissue-based
T1 sequence (whole entry): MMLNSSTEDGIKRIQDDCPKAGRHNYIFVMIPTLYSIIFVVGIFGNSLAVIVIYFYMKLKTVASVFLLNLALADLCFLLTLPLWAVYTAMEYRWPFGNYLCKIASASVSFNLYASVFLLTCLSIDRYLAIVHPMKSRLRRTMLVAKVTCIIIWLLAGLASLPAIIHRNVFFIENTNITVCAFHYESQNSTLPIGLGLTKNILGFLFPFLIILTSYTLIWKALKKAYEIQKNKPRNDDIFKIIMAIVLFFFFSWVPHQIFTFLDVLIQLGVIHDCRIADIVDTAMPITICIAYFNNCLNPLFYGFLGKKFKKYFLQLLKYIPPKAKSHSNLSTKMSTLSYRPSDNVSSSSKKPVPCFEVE

[2] = The compound was evaluated for volume of distribution in rat; type: ADME, organism-based; conditions: in vivo
[3] = Bioavailability in rat; type: ADME, organism-based; conditions: in vivo
[4] = The compound was evaluated for plasma clearance in rat; type: ADME, organism-based; conditions: read-out: Clp
[5] = The compound was evaluated for plasma half life period in rat; type: ADME, organism-based

Compound | pKB [1] | Vd [2] | bioavailability [3] | clearance [4] | half-life [5]
CCc1nc(C)c(C(N)=O)n1Cc1ccc2oc(-c3ccccc3NS(=O)(=O)C(F)(F)F)c(Br)c2c1 | 9 | – | – | – | –
CCCCc1nc(Cl)c(C(=O)O)n1Cc1ccc2oc(-c3ccccc3-c3nn[nH]n3)c(Br)c2c1 [ZOLASARTAN] | – | 0.5 L/kg | 3% | 0.8 mL/min/kg | 8 h
CCc1nc(C)c(C(=O)NC)n1Cc1ccc2oc(-c3ccccc3NS(=O)(=O)C(F)(F)F)c(Br)c2c1 | 9 | 4.3 L/kg | 95% | 42 mL/min/kg | 1.2 h
CCNC(=O)c1c(C)nc(CC)n1Cc1ccc2oc(-c3ccccc3NS(=O)(=O)C(F)(F)F)c(Br)c2c1 | 9.5 | – | – | – | –
CCc1nc(C2CC2)c(C(N)=O)n1Cc1ccc2oc(-c3ccccc3NS(=O)(=O)C(F)(F)F)c(Br)c2c1 [SAPRISARTAN] | 9 | 2.4 L/kg | 79% | 8.9 mL/min/kg | 3.2 h
CCc1nc(C)c(C(=O)N(C)C)n1Cc1ccc2oc(-c3ccccc3NS(=O)(=O)C(F)(F)F)c(Br)c2c1 | 9.1 | – | – | – | –
CCc1nc(CC(C)C)c(C(=O)NC)n1Cc1ccc2oc(-c3ccccc3NS(=O)(=O)C(F)(F)F)c(Br)c2c1 | < 8 | – | – | – | –
CCc1nc(C)c(C(=O)NCC(F)(F)F)n1Cc1ccc2oc(-c3ccccc3NS(=O)(=O)C(F)(F)F)c(Br)c2c1 | 9.2 | – | – | – | –
CCc1nc(C2CC2)c(C(=O)NC)n1Cc1ccc2oc(-c3ccccc3NS(=O)(=O)C(F)(F)F)c(Br)c2c1 | 9.7 | – | – | – | –
CCc1nc(CC)n(Cc2ccc3oc(-c4ccccc4NS(=O)(=O)C(F)(F)F)c(Br)c3c2)c1C(=O)NC | 9 | – | – | – | –
CCc1nc(C(C)C)c(C(=O)NC)n1Cc1ccc2oc(-c3ccccc3NS(=O)(=O)C(F)(F)F)c(Br)c2c1 | 8.1 | – | – | – | –
